Results as given in PMC6114901, “An automated screening method for detecting compounds with goitrogenic activity using transgenic zebrafish embryos” (PLoS ONE, 2018).
“Also recorded” adds a separate entry of the source.

Test system: thyroglobulin (tg:mCherry reporter gene)
Assay: animal or person
Description: In order to avoid interference of test chemicals with early thyroid gland development, zebrafish embryos were cultured in exposure medium until 48 hours post fertilization (hpf). Subsequently, they were exposed to seven known thyroid endocrine disrupters for 3 days (48 to 120 hpf). The non-goitrogenic compound 3,4-dichloroaniline, that is used as reference compound in the zebrafish acute embryo toxicity test was used as negative control. […] No solvents were used. […] Five concentrations and one control were tested per compound and replicate. In the second replicate the range of concentration was adjusted to improve fitting of concentration-response curves. […] Given the lack of appropriate spectral properties stability of exposure concentrations was not analysed for potassium perchlorate. Embryos were kept in the incubator at 26°C and a 14:10 hours light:dark cycle. The exposure was conducted in crystallisation dishes covered with watchmaker glasses with 30 embryos in 30 ml exposure medium (for exposure medium refer to [26]).
Embryos were positioned ventrally toward the microscope objective. Per embryo a bright field image, an autofocus fluorescence image and a Z-stack of 9 images were obtained. The Z-stack was required in case of autofocus failure and manual selection of the focal plane. Fluorescence images were obtained with 400 ms of fluorescent light exposure at maximal light intensity and a gain of 1. […] However, care was taken, that at least 10 images per concentration and replicates were assessed. To avoid a time bias during the analysis the sequence of wells for analysis was arranged in order to obtain a uniform distribution over the entire period of analysis.
The images were analysed using a KNIME workflow (Version 3.3.3., [29]) with the extension “KNIME image processing”. In brief, images were loaded into the workflow and the background was removed automatically using the “rolling ball” procedure of the image J plugin (rolling ball size set to 50 pixels). Subsequently the area containing the thyroid gland was manually selected by drawing a rectangle around the appropriate region using the interactive annotation node. […] If possible the autofocus images were used. In case that the thyroid gland was out of focus due to the presence of autofluorescing pigment cells, an appropriate image from the Z-stack was selected. All subsequent steps were conducted without any user interaction. […] Finally the sum of pixel (reflecting area of the thyroid gland and intensity of fluorescence) was calculated for the labeled area and used as a proxy of fluorescence intensity (see Fig 1 for an overview of the workflow). For each replicate the sum was of pixels was normalized by setting controls to the value of one. For data of individual embryos see S4 Table. The KNIME workflow used for image analysis is provided as supplement file (S1 Workflow).
To characterize the potency of the investigated goitrogenic compounds, we calculated EC50 values of tg:mcherry fluorescence using the pixel sum obtained from image analysis. For each replicate the fluorescence intensity was normalized by dividing the mean fluorescence intensity of each concentration with the mean control fluorescence intensity. Concentration-response curves of tgmcherry fluorescence were fitted to the data using the Hill-slope equation (Eq 1) and used to estimate EC50 values.
The parameter Min was set to 1 and the slope (p) and the maximum fluorescence (Max) were estimated.

Row | SMILES | effect on tg:mCherry fluorescence (zebrafish, in vivo) | Normalised mean pixel sum (0.13 µM, replicate 2) | Normalised mean pixel sum (0.493827 µM, replicate 1) | Normalised mean pixel sum (1.91 µM, replicate 2) | Normalised mean pixel sum (7.40741 µM, replicate 1) | Normalised mean pixel sum (29 µM, replicate 2) | Normalised mean pixel sum (111.111 µM, replicate 1) | Normalised mean pixel sum (430 µM, replicate 2) | Normalised mean pixel sum (1666.67 µM, replicate 1) | Normalised mean pixel sum (6455 µM, replicate 2) | Slope (Hill slope of tg:mCherry concentration-response curve) | BMD 20 (concentration at which a 20% increase of tg:mCherry fluorescence was observed) [µM] | EC50 (read-out: EC50 (tg:mCherry induction), exposure 48–120 hpf, Hill-slope model) [µM] | TDI (thyroid disruption index = LC50/EC50 tg:mCherry induction)
1 | Nc1ccc(Cl)c(Cl)c1 [3,4-DCA, 3,4-dichloroaniline] | decreased the fluorescence signal; also recorded: did not induce tg:mCherry fluorescence but led to a concentration dependent reduction in fluorescence |  |  |  |  |  |  |  |  |  |  |  |  | 
2 | [K+].[O-][Cl+3]([O-])([O-])[O-] [Potassium perchlorate, potassium perchlorate] |  | 0.90 | 1.06 | 1.30 | 0.86 | 1.75 | 1.38 | 1.97 | 2.55 | 2.16 | 0.69 | 37.6 | 137 | 241
